Measured values taken from patent US6100074A, “Mutant mono-oxygenase cytochrome P-450 cam” (BG plc, priority 1994, dated 2000).
Read-outs that look alike come from different tables or passages of the source.

Key:
[1] = molecular target: T1, wild type P450cam (Pseudomonas putida, UniProt P00183); assay type: binding; settings: Wild type; 200 μM test compound, phosphate buffer pH 7.4
Target sequence in this assay (P00183 whole entry): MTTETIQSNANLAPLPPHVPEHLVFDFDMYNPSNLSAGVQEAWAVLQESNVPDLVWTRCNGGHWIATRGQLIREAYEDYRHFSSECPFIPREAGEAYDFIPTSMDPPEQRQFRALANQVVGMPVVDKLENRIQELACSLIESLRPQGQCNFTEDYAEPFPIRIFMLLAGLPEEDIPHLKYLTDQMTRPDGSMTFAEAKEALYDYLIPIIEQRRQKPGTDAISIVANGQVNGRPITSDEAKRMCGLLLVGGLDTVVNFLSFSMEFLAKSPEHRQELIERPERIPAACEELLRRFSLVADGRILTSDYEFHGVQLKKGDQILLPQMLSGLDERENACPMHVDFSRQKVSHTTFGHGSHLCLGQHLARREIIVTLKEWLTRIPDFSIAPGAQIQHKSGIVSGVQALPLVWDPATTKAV

[2] = molecular target: P-450cam mutant Y96A (Pseudomonas putida, UniProt P00183, Y97A); test: biochemical; assay type: binding; settings: for percent displacement of bound DTT at 200 µM / inhibition at 200 µM: read-out: Vs DTT (percentage displacement of DTT bound to P-450)
[3] = molecular target: T1, wild type P450cam; test: biochemical; assay type: binding; settings: read-out: Vs DTT (percentage displacement of DTT bound to P-450)
Target sequence in this assay (P00183 whole entry): as above

[4] = molecular target: T2, P450cam mutant Y96A, C334A (Pseudomonas putida, UniProt P00183, C335A/Y97A); assay type: biochemical, P. putida; settings: also contains C334A
T2 construct: reconstituted with putidaredoxin and putidaredoxin reductase
Procedure: A solution containing 10 μM putidaredoxin, 2 μM putidaredoxin reductase, 1 μM cytochrome P-450cam mono-oyxgenase (wild-type or mutant) and 1 mM diphenylmethane in 100 mM KC1, 20 mM KH2 PO4 pH7.4 was preincubated at 25° C. in a shaker for 5 min. The enzymatic reaction was initiated by firstly adding NADH to a total concentration of 2 mM. Further four aliquots of NADH (to increase the NADH concentration by 1 mM each time) were added in intervals of 5 min and the reaction quenched after 30 min by adding 0.5 ml chloroform. The chloroform layer was analysed by gas chromatography.
(§1) Reaction products for some substrate compounds have been purified by high performance liquid chromatography and identified by mass spectroscopy, nuclear magnetic resonance, and/or co-elution. […] Table 4(a) to 4(h) details the product distributions for mutant and substrate combinations where this has been elucidated to date.
All mutants listed below also contain the C334A mutation.
Turnover rate measured as NADH consumption rate
(nmole NADH/nmole P450cam/s).

[5] = molecular target: T3, P450cam mutant Y96F, C334A (Pseudomonas putida, UniProt P00183, C335A/Y97F); assay type: biochemical, P. putida
T3 construct: reconstituted with putidaredoxin and putidaredoxin reductase
Procedure: (§2) […] The enzymatic reaction was initiated by firstly adding NADH to a total concentration of 2 mM. Further four aliquots of NADH (to increase the NADH concentration by 1 mM each time) were added in intervals of 5 min and the reaction quenched after 30 min by adding 0.5 ml chloroform. The chloroform layer was analysed by gas chromatography.
as §1
(§3) Product structure and distributions following oxidation of substrates
(§4) active site mutants. All mutants shown below also contain the C334A

[6] = molecular target: T2, P450cam mutant Y96A, C334A; assay type: biochemical, P. putida
Procedure: as §2, §1, §3, §4

[7] = molecular target: T1, wild type P450cam; test: Product distribution following oxidation of substrates, WT; assay type: biochemical, P. putida; parameters: reconstituted with putidaredoxin and putidaredoxin reductase
Procedure: as §2, §1, §3
Target sequence in this assay (P00259 whole entry): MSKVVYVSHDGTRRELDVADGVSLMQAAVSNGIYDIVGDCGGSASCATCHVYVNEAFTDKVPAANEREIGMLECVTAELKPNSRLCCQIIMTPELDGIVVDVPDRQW
Target sequence in this assay (P00183 whole entry): as the sequence (P00183 whole entry) above
Target sequence in this assay (P16640 whole entry, further chain): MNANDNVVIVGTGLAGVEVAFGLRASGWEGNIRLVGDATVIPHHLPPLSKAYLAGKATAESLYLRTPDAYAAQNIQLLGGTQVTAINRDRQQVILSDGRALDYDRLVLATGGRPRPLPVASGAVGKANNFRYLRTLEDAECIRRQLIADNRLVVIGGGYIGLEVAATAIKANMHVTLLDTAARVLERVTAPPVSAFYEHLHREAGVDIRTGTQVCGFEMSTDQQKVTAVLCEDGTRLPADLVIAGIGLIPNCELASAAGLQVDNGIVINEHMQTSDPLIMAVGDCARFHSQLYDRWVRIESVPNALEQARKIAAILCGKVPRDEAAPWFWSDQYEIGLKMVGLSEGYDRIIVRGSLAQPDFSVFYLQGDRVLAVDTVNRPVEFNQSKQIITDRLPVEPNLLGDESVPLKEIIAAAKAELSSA

[8] = molecular target: T4, P450cam mutant Y96V, C334A (Pseudomonas putida, UniProt P00183, C335A/Y97V); test: Product distribution following oxidation of substrates, Y96V (also C334A); assay type: biochemical, P. putida
T4 construct: reconstituted with putidaredoxin and putidaredoxin reductase
Procedure: as §2, §1, §3, §4

[9] = molecular target: T5, P450cam mutant Y96L, C334A (Pseudomonas putida, UniProt P00183, C335A/Y97L); test: Product distribution following oxidation of substrates, Y96L (also C334A); assay type: biochemical, P. putida
T5 construct: reconstituted with putidaredoxin and putidaredoxin reductase
Procedure: as §2, §1, §3, §4

[10] = molecular target: T6, P450cam mutant F87A-F96G-F193A (C334A) (Pseudomonas putida, UniProt P00183, C335A/F194A/F88A/Y97G); assay type: biochemical, P. putida
T6 construct: reconstituted with putidaredoxin and putidaredoxin reductase
Procedure: as §2, §1, §3, §4

[11] = Mutant Y96A, 200 μM DTT, 200 μM test compound, phosphate buffer
[12] = Wild type, 200 μM DTT, 200 μM test compound, phosphate buffer

P-450cam mutant Y96A, sequence (P00183 2-415 Y97A): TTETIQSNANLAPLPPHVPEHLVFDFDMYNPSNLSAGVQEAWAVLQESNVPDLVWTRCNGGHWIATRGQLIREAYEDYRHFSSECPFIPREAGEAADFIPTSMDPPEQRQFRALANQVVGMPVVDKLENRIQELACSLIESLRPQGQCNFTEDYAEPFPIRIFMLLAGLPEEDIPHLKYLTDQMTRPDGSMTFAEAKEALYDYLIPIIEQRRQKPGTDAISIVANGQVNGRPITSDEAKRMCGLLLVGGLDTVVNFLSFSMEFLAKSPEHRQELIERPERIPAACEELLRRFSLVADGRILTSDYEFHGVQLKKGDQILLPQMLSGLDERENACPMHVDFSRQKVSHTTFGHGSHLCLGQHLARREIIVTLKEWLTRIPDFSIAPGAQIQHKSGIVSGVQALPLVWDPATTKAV
T3 sequence (P16640 whole entry): as the sequence (P16640 whole entry, further chain) above
T3 sequence (P00183 2-415 Y97F/C335A): as the sequence (P00183 2-415 Y97A) above, with A96F, C334A counted along it
T3 sequence (P00259 whole entry, further chain): as the sequence (P00259 whole entry) above
T4 sequence (P16640 whole entry): as the sequence (P16640 whole entry, further chain) above
T4 sequence (P00259 whole entry, further chain): as the sequence (P00259 whole entry) above
T4 sequence (P00183 2-415 Y97V/C335A): as the sequence (P00183 2-415 Y97A) above, with A96V, C334A counted along it
T6 sequence (P00259 whole entry): as the sequence (P00259 whole entry) above
T6 sequence (P16640 whole entry, further chain): as the sequence (P16640 whole entry, further chain) above
T6 sequence (P00183 2-415 F88A/Y97G/F194A/C335A): as the sequence (P00183 2-415 Y97A) above, with F87A, A96G, F193A, C334A counted along it
T2 sequence (P00259 whole entry): as the sequence (P00259 whole entry) above
T2 sequence (P00183 2-415 Y97A/C335A): as the sequence (P00183 2-415 Y97A) above, with C334A counted along it
T2 sequence (P16640 whole entry, further chain): as the sequence (P16640 whole entry, further chain) above
T5 sequence (P00259 whole entry): as the sequence (P00259 whole entry) above
T5 sequence (P16640 whole entry, further chain): as the sequence (P16640 whole entry, further chain) above
T5 sequence (P00183 2-415 Y97L/C335A): as the sequence (P00183 2-415 Y97A) above, with A96L, C334A counted along it

c1ccc2c(c1)CCCC2 [1,2,3,4-Tetrahydro naphthalene]
ΔSpin high/low (percentage of P-450 converted from low- to high-spin) [1]: 5% | percent displacement of bound DTT at 200 µM [2, 11]: 40% | inhibition at 200 µM [3, 12]: 10%

C1=Cc2ccccc2CC1 [1,2-Dihydronaphthalene]
ΔSpin high/low (percentage of P-450 converted from low- to high-spin) [1]: 5% | percent displacement of bound DTT at 200 µM [2, 11]: 90% | inhibition at 200 µM [3, 12]: 20%

CCc1cccc2ccccc12 [1-Ethylnaphthalene]
percent displacement of bound DTT at 200 µM [2, 11]: 20%

CC(=O)Oc1cccc2ccccc12 [1-Naphthylacetate]
percent displacement of bound DTT at 200 µM [2, 11]: 5% | inhibition at 200 µM [3, 12]: 5%

CCCC(=O)Oc1cccc2ccccc12 [1-Naphthylbutyrate]
percent displacement of bound DTT at 200 µM [2, 11]: 5% | inhibition at 200 µM [3, 12]: 5%

CCC(=O)Oc1cccc2ccccc12 [1-Naphthylpropionate]
percent displacement of bound DTT at 200 µM [2, 11]: 20% | inhibition at 200 µM [3, 12]: 20%

CCC(C)(C)C [2,2-dimethyl butane]
Turnover rate measured as NADH consumption rate [4]: 14.0 nmole NADH/nmole P450cam/s

CC(C)C(C)C [2,3-dimethyl butane]
Turnover rate measured as NADH consumption rate [4]: 16.8 nmole NADH/nmole P450cam/s

CCc1ccc2ccccc2c1 [2-Ethylnaphthalene]
percent displacement of bound DTT at 200 µM [2, 11]: 20%

O=Cc1ccc2c(c1)Cc1ccccc1-2 [2-Fluorencarboxzaldehyde]
percent displacement of bound DTT at 200 µM [2, 11]: 50%

CC(=O)Oc1ccc2ccccc2c1 [2-Naphthylacetate]
percent displacement of bound DTT at 200 µM [2, 11]: 5% | inhibition at 200 µM [3, 12]: 5%

CCC(C)C [2-methyl butane]
Turnover rate measured as NADH consumption rate [4]: 4.6 nmole NADH/nmole P450cam/s

CCCCCC(C)C [2-methyl heptane]
Turnover rate measured as NADH consumption rate [4]: 2.1 nmole NADH/nmole P450cam/s

CCCCC(C)C [2-methyl hexane]
Relative activity (WT = 1) [5]: 2.3 | Products (%): 2-methyl-2-hexanol ([5]; 2-methyl hexane): 72% | Products (%): 2-methyl-3-hexanol ([5]; 2-methyl hexane): 7% | Products (%): 5-methyl-2-hexanol ([5]; 2-methyl hexane): 5% | Products (%): 5-methyl-2-hexanone ([5]; 2-methyl hexane): 16% | Relative activity (WT = 1) [6]: 2.6 | Products (%): 2-methyl-2-hexanol ([6]; 2-methyl hexane): 74% | Products (%): 2-methyl-3-hexanol ([6]; 2-methyl hexane): 4% | Products (%): 5-methyl-2-hexanol ([6]; 2-methyl hexane): 8% | Products (%): 5-methyl-2-hexanone ([6]; 2-methyl hexane): 14% | Turnover rate measured as NADH consumption rate [4]: 10.6 nmole NADH/nmole P450cam/s

CCC(CC)CC [3-ethyl pentane]
Turnover rate measured as NADH consumption rate [4]: 16.2 nmole NADH/nmole P450cam/s

O=C1c2ccccc2-c2ccccc21 [9-Fluorenone]
percent displacement of bound DTT at 200 µM [2, 11]: 5% | inhibition at 200 µM [3, 12]: 20%

CC1(C)[C@@H]2CC[C@@]1(C)C(=O)C2=O [(1R)-(-)-Camphorquinone]
ΔSpin high/low (percentage of P-450 converted from low- to high-spin) [1]: 80% | percent displacement of bound DTT at 200 µM [2, 11]: 80% | inhibition at 200 µM [3, 12]: 80%

CC1(C)C(=O)[C@]2(C)CC[C@H]1C2 [(1R)-(-)-Fenchone]
ΔSpin high/low (percentage of P-450 converted from low- to high-spin) [1]: 40% | percent displacement of bound DTT at 200 µM [2, 11]: 80% | inhibition at 200 µM [3, 12]: 70%

C=C(C)[C@H]1CC=C(C)C(=O)C1 [(S)-(+)-Carvone]
ΔSpin high/low (percentage of P-450 converted from low- to high-spin) [1]: 10% | percent displacement of bound DTT at 200 µM [2, 11]: 80% | inhibition at 200 µM [3, 12]: 60%

O=C1c2ccccc2Cc2ccccc21 [Anthrone]
percent displacement of bound DTT at 200 µM [2, 11]: 5% | inhibition at 200 µM [3, 12]: 5%

c1ccc(COCc2ccccc2)cc1 [Benzylether]
inhibition at 200 µM [3, 12]: 5%

c1ccc(CCc2ccccc2)cc1 [Bibenzyl]
percent displacement of bound DTT at 200 µM [2, 11]: 55%

c1ccc(-c2ccccc2)cc1 [Biphenyl]
inhibition at 200 µM [2]: 90% | inhibition at 200 µM [3]: 20%

C1=CCCCC1 [Cyclohexene]
percent displacement of bound DTT at 200 µM [2, 11]: 40% | inhibition at 200 µM [3, 12]: 5%

c1ccc(C2CCCCC2)cc1 [Cyclohexylbenzene]
Total products [7]: 0.8 area/10^5 | Products (%): Cis-4-ol ([7]; cyclohexylbenzene): 12% | Products (%): Trans-4-ol ([7]; cyclohexylbenzene): 25% | Total products [8]: 12.5 area/10^5 | Products (%): Cis-4-ol ([8]; cyclohexylbenzene): 23% | Products (%): Trans-4-ol ([8]; cyclohexylbenzene): 10% | ΔSpin high/low (percentage of P-450 converted from low- to high-spin) [1]: 20% | Total products [9]: 10.4 area/10^5 | Products (%): Cis-4-ol ([9]; cyclohexylbenzene): 16% | Products (%): Trans-4-ol ([9]; cyclohexylbenzene): 23% | Total products [5]: 1.1 area/10^5 | Products (%): Cis-4-ol ([5]; cyclohexylbenzene): 13% | Products (%): Trans-4-ol ([5]; cyclohexylbenzene): 6% | Total products [6]: 7.4 area/10^5 | Products (%): 3-ol ([6]; cyclohexylbenzene): 20% | Products (%): Cis-4-ol ([6]; cyclohexylbenzene): 45% | Products (%): Trans-4-ol ([6]; cyclohexylbenzene): 15% | inhibition at 200 µM [3, 12]: 20%

O=C(c1ccccc1)C1CCCCC1 [Cyclohexylphenylketone]
inhibition at 200 µM [3, 12]: 30%

C1=CC2C3C=CC(C3)C2C1 (centres unmarked) [Dicyclopentadiene]
ΔSpin high/low (percentage of P-450 converted from low- to high-spin) [1]: 50% | percent displacement of bound DTT at 200 µM [2, 11]: 90% | inhibition at 200 µM [3, 12]: 80%

c1ccc(Oc2ccccc2)cc1 [Diphenylether]
ΔSpin high/low (percentage of P-450 converted from low- to high-spin) [1]: 10% | percent displacement of bound DTT at 200 µM [2, 11]: 50% | inhibition at 200 µM [3, 12]: 5%

CCc1ccccc1 [Ethylbenzene]
percent displacement of bound DTT at 200 µM [2, 11]: 40%

c1ccc2c(c1)-c1cccc3cccc-2c13 [Fluoranthene]
Total products [7]: 0 area/10^6 | Products (%): A ([7]; fluoranthene): 0% | Products (%): B ([7]; fluoranthene): 0% | Total products [10]: 0.2 area/10^6 | Products (%): A ([10]; fluoranthene): 0% | Products (%): B ([10]; fluoranthene): 100% | Total products [6]: 2.7 area/10^6 | Products (%): A ([6]; fluoranthene): 84% | Products (%): B ([6]; fluoranthene): 16% | inhibition at 200 µM [2]: 10% | inhibition at 200 µM [3]: 5%

c1ccc2c(c1)Cc1ccccc1-2 [Fluorene]
percent displacement of bound DTT at 200 µM [2, 11]: 50%

C=CC(=C)C [Isoprene]
percent displacement of bound DTT at 200 µM [2, 11]: 10%

CC1CCCCC1 [Methylcyclohexane]
ΔSpin high/low (percentage of P-450 converted from low- to high-spin) [1]: 50% | Vs DTT (percentage displacement of DTT bound to P-450) ([2]; Mutant Y96A, 200 μM DTT, 200 μM test compound, phosphate buffer, 200 µM): 70% | percent displacement of bound DTT at 200 µM [2, 11]: 60% | inhibition at 200 µM [3, 12]: 50%

c1ccc(CNc2ccccc2)cc1 [N-Phenylbenzylamine]
inhibition at 200 µM [3, 12]: 5%

O=C(c1ccccc1)c1ccc2ccccc2c1 [Naphthylphenylketone]
percent displacement of bound DTT at 200 µM [2, 11]: 5% | inhibition at 200 µM [3, 12]: 5%

CCCCCCCC/C=C\CCCCCCCC(=O)O [Oleic acid]
percent displacement of bound DTT at 200 µM [2, 11]: ~20% | inhibition at 200 µM [3, 12]: ~10%

O=C(Oc1ccccc1)c1ccccc1 [Phenylbenzoate]
inhibition at 200 µM [3, 12]: 5%

c1cc2ccc3cccc4ccc(c1)c2c34 [Pyrene]
Total products [7]: 0 area/10^6 | Total products [8]: 1.6 area/10^6 | Total products [9]: 1.5 area/10^6 | Total products [10]: 0.02 area/10^6 | Total products [5]: 1.5 area/10^6 | Total products [6]: 1.2 area/10^6

CCCCCCCCCCCCOS(=O)(=O)O [SDS]
percent displacement of bound DTT at 200 µM [2, 11]: 60% | inhibition at 200 µM [3, 12]: 20%

CC(C)=CCC/C(C)=C/CC/C(C)=C/CC/C=C(\C)CC/C=C(\C)CCC=C(C)C [Squalene]
percent displacement of bound DTT at 200 µM [2, 11]: 20%

C=Cc1ccccc1 [Styrene]
percent displacement of bound DTT at 200 µM [2, 11]: 30%

Cc1ccccc1 [Toluene]
percent displacement of bound DTT at 200 µM [2, 11]: 30%

C(=C/c1ccccc1)/c1ccccc1 [cis-Stilbene]
percent displacement of bound DTT at 200 µM [2, 11]: 50% | inhibition at 200 µM [3, 12]: 20%

CCCCCCCCCCCC [n-Dodecane]
percent displacement of bound DTT at 200 µM [2, 11]: 5%

CCCCCCCCCCC [n-Undecane]
percent displacement of bound DTT at 200 µM [2, 11]: 20%

C1CC[C@H]2CCCC[C@@H]2C1 [trans-Decahydro naphthalene]
ΔSpin high/low (percentage of P-450 converted from low- to high-spin) [1]: 20% | percent displacement of bound DTT at 200 µM [2, 11]: 70% | inhibition at 200 µM [3, 12]: 10%
